Experimental data reported in patent publication US5849560A, “Proteases causing degradation of amyloid β-protein precursor” (priority 1993, dated 1998).
Non-standard residues stand in square brackets, D forms with d. Residues, ends and D or L forms follow the SMILES beside them. *: point of attachment. Sta = CC(C)C[C@H](N)[C@@H](O)CC(=O)O; Isovaleryl = CC(C)CC(=O)*; Cbz = O=C(OCc1ccccc1)*; CH2F = FC*

Experiments:
[1] = molecular target: T1, "Met cut" metalloprotease (AD metalloprotease) purified from AD brain homogenate (Homo sapiens, UniProt P52888); test: Effect of additives on synthetic peptide substrate (P1) degrading activity of the purified Met cut metalloprotease; assay type: biochemical; conditions: for effect on metalloprotease activity (in words): concentrations as in Table II, divalent ions at 2 mM; for remaining activity at 150 µM: reagent conc. 0.15 mM; for remaining activity at 5000 µM: reagent conc. 5.0 mM; for remaining activity at 200 µM: reagent conc. 0.2 mM; for remaining activity at 140 µM: reagent conc. 0.14 mM
T1 construct: isolate and purify an AD metalloprotease from AD brain homogenate; from tissue; host or cells: brain of Alzheimer's disease patients
Method: The different protease fractions are monitored for proteolytic activity against iodinated peptide "P1". Incubations are carried out at 37° C. in 50 mM Tris-Cl, pH 7.4, in the presence of 1 mM MgCl2 +1 mM DTT. The proteolytic products are separated by TLC on cellulose microcrystalline plates, using n-butanol:pyridine:acetic acid:water, 15:10:3:12 (v/v), as a solvent, followed by autoradiography. […] ID NO. 1] to His-Ser-Glu-Val-Lys-Met [SEQ, ID NO. 2] were quantified with a Molecular Dynamics ImageQuant™ v3.0 scanning densitometer or a Bioscan system 200 imaging scanner. […] One unit of Met cut metalloprotease activity under these conditions was defined as converting 1 μg of P1 to His-Ser-Glu-Val-Lys-Met [SEQ. ID NO. 2] in 1 min.
Referring now to Table II, the effects of various additives on the activity degrading the synthetic substrate (P1) were examined. The metalloprotease sample as incubated with the appropriate amount of additive and assayed for remaining activity, as described above. Control reactions with no reagent, or containing only the solvent of the reagent were always included. Reactions were allowed to proceed for 45 min at 4° C., except E-64 which was incubated for 15 or 30 min (b and c respectively) and iodoacetamide was incubated at 37° C. for 30 min.
Stock solutions of phenylmethylsulfonyl fluoride (PMSF)", E-64, 1,10 phenanthroline, calpain inhibitor, Z-Phe-Phe-CH2 F (Enzyme Systems Products, Livermore, Calif.) were dissolved in ethanol. […] ZINCOV (Calbiochem, Calif.) and phosphoramidon (Sigma, USA), were also dissolved in water. Pepstatin A was dissolved in methanol. The susceptibility of the protease activity to various divalent cations was determined by including metals at a final concentration of 2 mM in the assay reaction mixture.

[2] = test system: Ca2+ activated serine protease (serine AD proteolytic factor) from AD brain; test: Peptide degradation assay (125I-P1, TLC) with the serine AD proteolytic factor and inhibitors; assay type: biochemical, human
[3] = concentrations as in Table II (iodoacetamide 8.0 mM, leupeptin 0.2 mM), read-out: partial inhibitory effect on the protease
[4] = reagent conc. 1.0 mM, 45 min at 4° C.

T1 sequence (P52888 whole entry): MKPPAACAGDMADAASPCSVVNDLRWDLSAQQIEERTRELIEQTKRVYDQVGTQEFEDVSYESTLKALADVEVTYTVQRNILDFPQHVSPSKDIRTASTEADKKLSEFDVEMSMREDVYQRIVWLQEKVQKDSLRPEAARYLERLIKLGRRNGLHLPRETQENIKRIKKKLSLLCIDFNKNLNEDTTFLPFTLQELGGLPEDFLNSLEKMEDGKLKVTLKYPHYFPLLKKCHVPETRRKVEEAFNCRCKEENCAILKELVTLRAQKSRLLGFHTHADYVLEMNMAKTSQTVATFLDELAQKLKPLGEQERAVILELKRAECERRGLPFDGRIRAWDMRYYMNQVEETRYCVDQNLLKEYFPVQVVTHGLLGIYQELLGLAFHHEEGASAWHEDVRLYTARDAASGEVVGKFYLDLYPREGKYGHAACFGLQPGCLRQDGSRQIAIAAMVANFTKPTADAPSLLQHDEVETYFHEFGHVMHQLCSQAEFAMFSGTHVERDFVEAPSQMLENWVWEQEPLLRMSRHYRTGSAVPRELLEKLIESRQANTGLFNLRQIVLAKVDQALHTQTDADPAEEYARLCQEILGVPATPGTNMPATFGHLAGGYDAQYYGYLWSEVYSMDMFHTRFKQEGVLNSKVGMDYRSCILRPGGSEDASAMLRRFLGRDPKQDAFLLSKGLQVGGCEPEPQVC

Molecule: O=S(=O)(F)Cc1ccccc1 [PMSF, phenylmethylsulfonyl fluoride]
- % Activity Remaining ([1]; reagent conc. 7.0 mM, 45 min at 4° C.): 100%

Molecule: NC(=O)CI [Iodoacetamide]
- inhibition at 8000 µM [1, 3]: 34%
- remaining activity at 8000 µM ([1]; reagent conc. 8.0 mM, 37° C. for 30 min): 66%

Molecule: CC(C)CC(C(=O)NO)C(=O)N[C@@H](C)C(=O)NCC(N)=O (stereo partly shown) [ZINCOV]
- effect on metalloprotease activity (in words) [1]: Strong inhibition
- % Activity Remaining [1, 4]: 42.4%

Molecule: albumin
- effect on cleavage of 125I-P1 by the serine AD proteolytic factor (in words) [2]: did not influence the activity

Molecule: C[C@H](NC(=O)[C@H](C)NC(CCc1ccccc1)C(=O)O)C(=O)N[C@@H](Cc1ccccc1)C(=O)Nc1ccc(C(=O)O)cc1 (stereo partly drawn) [CPP-Ala-Ala-Phe-pAB]
- effect on metalloprotease activity (in words) [1]: strongly inhibited
- remaining activity at 15 µM ([1]; reagent conc. 0.015 mM, 45 min at 4° C.): 47.5%
- remaining activity at 150 µM ([1]; 45 min at 4° C.): 28%

Molecule: CC(C)C[C@H](NP(=O)(O)O[C@@H]1O[C@@H](C)[C@H](O)[C@@H](O)[C@H]1O)C(=O)N[C@@H](Cc1c[nH]c2ccccc12)C(=O)O [Phosphoramidon]
- remaining activity at 1000 µM [1, 4]: 89.5%

Molecule: O=C(O)c1cc[c]([Hg][OH])cc1 [Hydroxymercurybenzoate, hydroxymercurybenzoate]
- effect on metalloprotease activity (in words) [1]: strong inhibition
- % Activity Remaining ([1]; reagent conc. 1.6 mM, 45 min at 4° C.): 0%
- reversal of inhibition by the reducing agent (DTT) ([1]; stoichiometrically increasing concentrations of DTT): readily reversed

Molecule: Aprotinin
- % Activity Remaining ([1]; reagent conc. 0.03 mM, 45 min at 4° C.): 100%

Molecule: CC(C)C[C@H](NC(=O)[C@@H](O)[C@H](N)Cc1ccccc1)C(=O)O [Bestatin]
- remaining activity at 2 µM ([1]; reagent conc. 0.002 mM, 45 min at 4° C.): 60%

Molecule: CCN1C(=O)C=CC1=O [N-ethylmaleimide]
- effect on metalloprotease activity (in words) [1]: strong inhibition
- remaining activity at 5000 µM ([1]; 45 min at 4° C.): 7.9%

Molecule: CC(C)CC(=O)N[C@H](C(=O)N[C@H](C(=O)N[C@@H](CC(C)C)[C@@H](O)CC(=O)N[C@@H](C)C(=O)N[C@@H](CC(C)C)[C@@H](O)CC(=O)O)C(C)C)C(C)C [Pepstatin A] (Isovaleryl-VV[Sta]A[Sta]-OH)
- remaining activity at 150 µM ([1]; 45 min at 4° C.): 100%

Molecule: O[C@H](CS)[C@H](O)CS (racemic) [Dithiothreitol, dithiothreitol]
- effect on metalloprotease activity (in words) [1]: required for the activity
- % Activity Remaining ([1]; reagent conc. 0.0 mM): 0%
- remaining activity at 1000 µM [1, 4]: 100%
- remaining activity at 2500 µM ([1]; reagent conc. 2.5 mM): 70.8%
- remaining activity at 5000 µM ([1]; 45 min at 4° C.): 25.5%

Molecule: O=C(N[C@@H](Cc1ccccc1)C(=O)N[C@@H](Cc1ccccc1)C(=O)CF)OCc1ccccc1 [Z-Phe-Phe-CH2F] (Cbz-Phe-Phe-CH2F)
- remaining activity at 200 µM ([1]; 45 min at 4° C.): 82.7%

Molecule: c1cnc2c(c1)ccc1cccnc12 [1,10 phenanthroline]
- effect on metalloprotease activity (in words) [1]: Strong inhibition
- remaining activity at 4000 µM ([1]; reagent conc. 4.0 mM, 45 min at 4° C.): 0%

Molecule: CC(C)CC(NC(=O)C1OC1C(=O)O)C(=O)NCCCCN=C(N)N (stereo not shown) [E-64]
- effect on metalloprotease activity (in words) [1]: less
- remaining activity at 140 µM ([1]; incubated 15 min (b)): 57.5%
- remaining activity at 140 µM ([1]; incubated 30 min (c)): 27.3%

Molecule: O=C(O)CN(CCOCCOCCN(CC(=O)O)CC(=O)O)CC(=O)O [EGTA]
- effect on cleavage of 125I-P1 by the serine AD proteolytic factor (in words) [2]: prevent cleavage
- effect on metalloprotease activity (in words) [1]: Strong inhibition
- remaining activity at 7500 µM ([1]; reagent conc. 7.5 mM, 45 min at 4° C.): 0%

Molecule: CC(=O)N[C@@H](CC(C)C)C(=O)N[C@@H](CC(C)C)C(=O)N[C@H](C=O)CCCNC(=N)N [Leupeptin]
- inhibition at 200 µM [1, 3]: 36.3%
- remaining activity at 200 µM ([1]; 45 min at 4° C.): 63.7%

B1: ACT: serine protease inhibitor α1-antichymotrypsin (Calbiochem) (protein, UniProt P01011 24-423, looked up)
Alpha-1-antichymotrypsin: HPNSPLDEENLTQENQDRGTHVDLGLASANVDFAFSLYKQLVLKAPDKNVIFSPLSISTALAFLSLGAHNTTLTEILKGLKFNLTETSEAEIHQSFQHLLRTLNQSSDELQLSMGNAMFVKEQLSLLDRFTEDAKRLYGSEAFATDFQDSAAAKKLINDYVKNGTRGKITDLIKDLDSQTMMVLVNYIFFKAKWEMPFDPQDTHQSRFYLSKKKWVMVPMMSLHHLTIPYFRDEELSCTVVELKYTGNASALFILPDQDKMEEVEAMLLPETLKRWRDSLEFREIGELYLPKFSISRDYNLNDILLQLGIEEAFTSKADLSGITGARNLAVSQVVHKAVLDVFEEGTEASAATAVKITLLSALVETRTIVRFNRPFLMIIVPTDTQNIFFMSKVTNPKQA
- effect on cleavage of 125I-P1 by the serine AD proteolytic factor (in words) [2]: inhibited cleavage

B2: protease nexin 1: protease nexin 1 (protein, UniProt P07093 20-398, looked up)
Glia-derived nexin: SHFNPLSLEELGSNTGIQVFNQIVKSRPHDNIVISPHGIASVLGMLQLGADGRTKKQLAMVMRYGVNGVGKILKKINKAIVSKKNKDIVTVANAVFVKNASEIEVPFVTRNKDVFQCEVRNVNFEDPASACDSINAWVKNETRDMIDNLLSPDLIDGVLTRLVLVNAVYFKGLWKSRFQPENTKKRTFVAADGKSYQVPMLAQLSVFRCGSTSAPNDLWYNFIELPYHGESISMLIALPTESSTPLSAIIPHISTKTIDSWMSIMVPKRVQVILPKFTAVAQTDLKEPLKVLGITDMFDSSKANFAKITTGSENLHVSHILQKAKIEVSEDGTKASAATTAILIARSSPPWFIVDRPFLFFIRHNPTGAVLFMGQINKP
- effect on cleavage of 125I-P1 by the serine AD proteolytic factor (in words) [2]: did not influence the activity

B3: Soybean Trypsin Inhibitor: Soybean Trypsin Inhibitor, protease inhibitor tested in Table II (protein, UniProt P01070 25-205, looked up)
Trypsin inhibitor A: DFVLDNEGNPLENGGTYYILSDITAFGGIRAAPTGNERCPLTVVQSRNELDKGIGTIISSPYRIRFIAEGHPLSLKFDSFAVIMLCVGIPTEWSVVEDLPEGPAVKIGENKDAMDGWFRLERVSDDEFNNYKLVFCPQQAEDDKCGDIGISIDHDDGTRRLVVSKNKPLVVQFQKLDKESL
- % Activity Remaining ([1]; reagent conc. 0.01 mM, 45 min at 4° C.): 100%
